Assay results as given in patent US20200400567A1, “FUSION POLYPEPTIDE” (PEKING UNIVERSITY, priority 2017, published 2020).
Entries after “also recorded” stand apart in the source; their conditions may differ.

What was measured:
[1] = target: GRAB-Oxt-Cter580 sensor (human); assay: cell-based or functional assay
[2] = system: human DRD2 receptor; assay: GRAB-GDA3.0 fluorescence response in HEK293T cells, drug perfusion; format: cell-based
Description: There are 5 subtypes of human dopamine receptors in the body, which are named DRD1-DRD5. For constructing a fluorescent sensor, the receptors were screened preliminarily by inserting a fluorescent protein at any position in the third intracellular loop of the receptor. […] Specifically, for the third intracellular loop of the human DRD2 receptor, the insertion sites were set every 15 amino acids. Human DRD2 receptors inserted with circular permutated fluorescent proteins at different positions were expressed in HEK293T cells, and drug perfusion experiments were conducted with dopamine. […] After the positions sensitive to conformational change were determined, the surrounding amino acid sites thereof were further screened. The sites surrounding the amino acid position 252 at N-terminus and the sites surrounding the amino acid position 357 at the C-terminus were combined and different sensors were constructed. The sensors were expressed in HEK293T cells and subjected to drug perfusion experiments with dopamine. […] The peptide linkers were GG at the N-terminus and GGAAA at the C-terminus.

[3] = system: GRAB-GDA3.0 signal in mushroom body (MB); assay: Odor-stimulated GRAB-GDA3.0 signal in mushroom body, in vivo two-photon imaging; set-up: species or system Drosophila; settings: for effect on odor (IA)-stimulated GDA signal in MB β' lobe: 10 μM antagonist in imaging solution, n=6
Protocol: Drosophila were kept in a 25-degree incubator with a standard medium. […] The adult Drosophila to be tested were transferred to a new culture tube within 0-2 days after emergence, and left at room temperature for 8-12 days. Before the imaging, the Drosophila were first fixed in a small dish, and then the square skull part near the eye was surgically removed to expose part of the brain. The adipose tissue and air sacs near the antennal lobes to be imaged were surgically removed to prevent interference with the fluorescent signal. In order to further reduce the degradation of image quality caused by the movement of Drosophila during the imaging, surgical forceps were used to cut the muscles underneath its halter. Throughout the dissection and imaging procedures, the brain of Drosophila was kept in a pre-chilled physiological solution, and the formula thereof is as follows: […]
Drosophila imaging was performed using an Olympus two-photon microscope, including Olympus BX61 WI microscope, 25×NA: 1.05 water lens, and Ti:Sapphire laser mode-locked laser for two-photon excitation. For GRAB sensor imaging experiments, the wavelength of the […] was set to 950 nm in order to successfully excite the fluorescent protein to produce fluorescence. The odor molecule isoamyl acetate (IA) used for stimulating Drosophila was purchased from Sigma, and was diluted in mineral oil at a ratio of 1:100. In the experiment, the isoamyl acetate was further diluted 5-40 times by mixing with air. The air mixed with odor molecules was provided at a position about 1 cm away from the tentacles of the Drosophila through a cavity about 1 cm wide on the experimental table. The odor molecule of different concentrations was tested by controlling the airflow. Each imaging cycle was 17.8 seconds, of which 5 to 10 seconds was the time for providing specific odor molecules. After the imaging experiment for odor function, the imaging area was scanned layer by layer with high resolution setting to obtain the distribution information of the olfactory bulb, which was later identified based on the information of olfactory bulb distribution at the antennal lobe reported in the literature.
The transgenic Drosophila UAS-GRAB-GDA3.0 was constructed to express the GRAB-GDA3.0 sensor in specific cells, driven by the corresponding GAL4 strain. First, GRAB-GDA3.0 was expressed in dopaminergic neurons (DAN) in all Drosophila, and the response induced by odor (isoamyl acetate) was examined by in vivo two-photon imaging (FIG. 39A).
A pharmacological study was performed on GRAB-GDA3.0.
The rate of GDA signal attenuation between normal Drosophila and Drosophila with reduced DAT expression was compared (this is the experiment of gene level research using DAT-RNAi described later). In DAN, the dopamine transporter (DAT) is located in the presynaptic membrane and […] DA intermittently and cyclically from the synapse. DAT-RNAi was used to inhibit DAT expression in DAN (FIG. 40G).

[4] = system: human acetylcholine receptor M3R subtype; assay: GRAB-ACh sensor fluorescence response to ACh, drug perfusion in HEK293T cells; format: cell-based; settings: GRAB-ACh 1.0 in cells, blocking agent mixed with ACh
Protocol: (§1) After DNA encoding specific GRAB sensor was introduced into cells by transfection, fluorescence imaging combined with perfusion experiment was. The imaging capture of HEK293T cells was performed using an Olympus IX81 inverted microscope, 40×NA: 1.35 oil lens, 475/28 excitation light filter, and 515LP emission light filter. The optical signal was collected by a Zyla sCMOS DG-152V-Cle FI camera (Andor), and Lambda DG-4 from Sutter Instuments company was used as a fluorescent light source. The exposure time was set to less than 50 ms and the acquisition frequency was 5 seconds. The entire imaging system was overall controlled by micromanager software.
The detection of the response of the GRAB sensor to the ligand (ΔF/F0) was performed using a drug perfusion method. The cells were placed in a standard physiological solution, and the formula thereof is: […]
The pH of the physiological solution was adjusted to about 7.4, and the small molecule drug was diluted with a part of the physiological solution to formulate solutions of respective concentrations of the small molecule ligand. […] Unless explicitly specified, the concentration of isoproterenol (ISO) for perfusion was 2 μM, and the concentration of acetylcholine for perfusion was 100 μM.
The perfusion system was equipped on a microscope, including a solution-introduced system made of syringe for injection, a multi-way valve, an imaging workbench and a suction pump. During the perfusion process, the imaging workbench was placed above the objective lens of the inverted microscope, and then the slide on which cell plated were placed in the workbench. Perfusion of different drugs were performed by controlling the switches of different pipes. In order to control the level of the solution in the workbench, the perfusion speed was set to one drop or so per second. After each drug treatment, the cells were washed with a physiological solution for more than five minutes to ensure that there were no residual drugs that will affect subsequent experiments. After the end of each experiment, the perfusion pipe and the workbench were cleaned with 75% ethanol three times to ensure that the residual drugs and impurities were fully washed away.
Fluorescence imaging data was processed using ImageJ software. For the performance of GRAB sensors in HEK293T cells and neurons, the fluorescence of entire cell body was selected as the data processing region. For living Drosophila imaging, fluorescence images on the same Z axis were analyzed by ImageJ software. The change in the fluorescence signal was indicated by its relative difference. The signal of background area without the expression of the sensor was first subtracted from the fluorescence signal, so as to obtain the real expression of the intensity of the fluorescent protein. Then, by calculating the fluorescence value F after adding the drug and the average fluorescence value F0 before adding, the relative fluorescence change ΔF/F=(F−F0)/F0 was obtained as the fluorescence response of the sensor to a specific drug. The change of ΔF/F0 with time was further plotted by Origin 8.6 software.
Based on GRAB-ACh 1.0, this peptide linker was optimized. First, based on a flexible amino acid (glycine, alanine), the peptide segment was screened for optimal length. The specific strategy was to change the length of the peptide linkers at the N-terminus and C-terminus from 0 to 5 amino acids, respectively, and to randomly combine the N-terminus with C-terminus to obtain all possible permutations. Fusion protein expression vectors containing various arrangements were expressed in HEK293T cells and subjected to perfusion experiments.

[5] = system: Gαq-mediated signal transduction pathway; assay: TGFα release in Gαq stable cell lines; format: cell-based
Description: The coupling of GRAB-ACh4.0 and downstream Gαq was detected. First, three stable cell lines were constructed based on the Gαq cell line: M3R (marked as CHRM3 in FIG. 51), GRAB-ACh4.0, and blank (marked as Gq in FIG. 51) cell lines; then, the release of TGFα was used to characterize the extent to which the Gαq protein was activated. […], causing the release of TGF-α with alkaline phosphatase even when there is no signal from Gαq. Therefore, TPA was added to cells as a positive control.

[6] = system: human acetylcholine receptor M3R subtype; assay: GRAB-ACh 1.0 in cultured rat cortical neurons, perfusion; format: cell-based
Protocol: Newborn Sprague-Dawley rats were used for the primary culture of rat neurons. After the skin of rat was cleaned with alcohol, the head was dissected with surgical instruments, the brain was removed out and the vascular membrane on the surface of the cortex was carefully removed. The cortical tissue was cut into pieces and placed in a 0.25% trypsin solution, and digested for 10 minutes in an incubator at 37° C. After the digestion, the digestion was terminated with DMEM medium containing 5% FBS, and the cells were further isolated by slowly pipetting up and down ten times with a pipette. After standing for 5 minutes, the pellet containing the tissue debris was discarded and the upper layer solution was collected and centrifuged at 1,000 rpm for 5 minutes in a centrifuge. Thereafter, the supernatant was discarded and the neurons were resuspended with the Neurobasal+B27 medium which was used for culturing the neurons. The cell density was calculated using a cell counting chamber. After that, the cells were diluted at a density of 0.5-1×10^6 cells/ml and plated on the slides coated with poly-lysine (purchased from Sigma). […]
The optical response of neurons expressing the neurotransmitter sensor was observed by perfusion with a neurotransmitter solution. The neurotransmitter-specific optical signals were recorded, which were fast and stable, and have good repeatability in different neurons. […]

[7] = system: human β2 adrenergic receptor; assay: GRAB-EPI sensor fluorescence response (ΔF/F0) to ISO, drug perfusion in HEK293T cells; format: cell-based; settings: GRAB-EPI 1.0 in cells, blocking agent mixed with ISO
Protocol: as §1
The detection of the response of the GRAB sensor to the ligand (ΔF/F0) was performed using a drug perfusion method. […]
Fluorescence imaging data was processed using ImageJ software. For the performance of GRAB sensors in HEK293T cells and neurons, the fluorescence of entire cell body was selected as the data processing region. For living Drosophila imaging, fluorescence images on the same Z axis were analyzed by ImageJ software. The change in the fluorescence signal was indicated by its relative difference. The signal of background area without the expression of the sensor was first subtracted from the fluorescence signal, so as to obtain the real expression of the intensity of the fluorescent protein. […]

[8] = system: human acetylcholine receptor M3R subtype; assay: GRAB-ACh 1.0 in acute mouse hippocampus brain slices, local perfusion, two-photon imaging; format: cell-based, mice; settings: GRAB-ACh 1.0 expressing cells in brain slices
Description: The DNA encoding GRAB-ACh 1.0 sensor was packed in lentivirus and expressed in the hippocampal neurons of mice, and its fluorescence performance was detected by local perfusion of acetylcholine.

GRAB-Oxt-Cter580 sensor (human), sequence (chain, as listed by the source limits assumed): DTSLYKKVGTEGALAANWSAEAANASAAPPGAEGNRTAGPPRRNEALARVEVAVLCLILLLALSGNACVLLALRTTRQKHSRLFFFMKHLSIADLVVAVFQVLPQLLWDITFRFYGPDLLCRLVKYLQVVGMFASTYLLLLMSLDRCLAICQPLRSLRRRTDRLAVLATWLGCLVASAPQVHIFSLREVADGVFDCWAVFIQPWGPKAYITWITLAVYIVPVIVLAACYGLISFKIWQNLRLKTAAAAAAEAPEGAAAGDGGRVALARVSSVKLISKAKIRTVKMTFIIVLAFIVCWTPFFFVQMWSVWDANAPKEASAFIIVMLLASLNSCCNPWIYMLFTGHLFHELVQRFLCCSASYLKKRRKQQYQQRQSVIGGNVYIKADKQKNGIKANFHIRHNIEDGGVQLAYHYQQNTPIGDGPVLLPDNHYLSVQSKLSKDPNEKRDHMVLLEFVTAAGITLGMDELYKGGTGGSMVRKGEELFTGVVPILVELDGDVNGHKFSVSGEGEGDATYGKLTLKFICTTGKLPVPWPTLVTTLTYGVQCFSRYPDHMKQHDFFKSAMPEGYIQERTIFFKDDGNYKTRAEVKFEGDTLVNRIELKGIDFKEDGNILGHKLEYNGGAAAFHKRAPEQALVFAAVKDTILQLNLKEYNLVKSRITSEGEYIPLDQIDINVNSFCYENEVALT

Compound: Oxytocin (from UniProt P01178 20-28) (peptide)
- change in fluorescence signal (ΔF/F0) of the sensor on perfusion with the agonist (% ΔF/F0 at 1 µM Oxytocin) [1]: 10

Compound: GRAB-GDA3.0: human DRD2 receptor, positions 254 to 360 truncated, cpEGFP inserted, linkers GG-GGAAA, SEQ ID NO: 26
- signal change ([2]; saturated concentration of dopamine, HEK293T cells): 110%
- decay τ of odor-induced GDA signal ([3]; DAT-RNAi Drosophila): 1.85 s
- decay τ of odor-induced GDA signal ([3]; WT Drosophila): 0.48 s

Compound: O=C(CCCN1CCC(O)(c2ccc(Cl)cc2)CC1)c1ccc(F)cc1 [Haloperidol]
- activation or block of GRAB-GDA3.0 [2]: blocked; also recorded: inhibited
- effect on odor (IA)-stimulated GDA signal in MB β' lobe ([3]; listed as halo): can be blocked
- effect on odor (IA)-stimulated GDA signal in MB β' lobe ([3]; listed as haloperidol): completely blocked

Compound: C[N+]1(C)[C@@H]2C[C@@H](OC(=O)C(O)(c3cccs3)c3cccs3)C[C@H]1[C@@H]1O[C@@H]12 [Tio, Tiotropium bromide]
- effect of blocking agent on ligand (Ach)-induced fluorescence increase [4]: specifically blocked
- effect of antagonist on downstream signal induced by M3R ([5]; ACh): completely block
- effect of receptor blocker on response to acetylcholine [6]: can block

Compound: Cc1ccc(OCC(O)C(C)NC(C)C)c2c1CCC2 (stereo not shown) [ICI]
- effect of blocking agent on agonist (ISO)-induced fluorescence increase [7]: specifically blocked

Compound: WT-M3R: natural M3 type acetylcholine receptor without cpEGFP insertion
- activation of Gαq-mediated signal transduction pathway ([5]; gradient concentrations of ACh): activated the Gαq-mediated signal transduction pathway

Compound: C[N+](C)(C)CC#CCN1CCCC1=O [Oxo-M]
- fluorescence response to agonist [8]: respond to; also recorded: obvious fluorescence enhancement
